Experimental data: paper PMC10350917 (Journal of Medicinal Chemistry, 2023)
Read-outs that look alike come from different tables or passages of the source.

How the values were obtained:
[1] = system: ADC-212 in pBCSK(−) E. coli DH10B; test: Broth microdilution AST, ADC-212; type: cell-based; conditions: Escherichia coli, E. coli DH10B ADC-212, MB076 fixed at 10 mg/L in combinations, FDC in iron-depleted broth
Procedure: (§1) Susceptibility testing to standard antibiotics was performed by broth microdilution or agar dilution using an Oxoid replicator according to 2021 Clinical and Laboratory Standards Institute (CLSI) guidelines. MICs for CAZ, CTX, FEP, and TOL were determined using cation-adjusted Mueller Hinton MH broth, and MICs for FDC were done in iron-depleted cation-adjusted MH broth according to CLSI methods. MB076, S02030, and VAB were used at a fixed concentration of 10 mg/L. All MICs were interpreted according to the 2021 CLSI guidelines.[43]
(§2) blaADC-7 pBCSK- was cloned and expressed in E. coli DH10B cells as previously described.[44] All other blaADC variants were synthesized by GenScript according to the blaADC-7 pBCSK- strategy, cloning into the XbaI/BamHI sites of the pBCSK- vector.

[2] = system: ADC-7 in pBCSK(−) E. coli DH10B; test: Broth microdilution AST, ADC-7; type: cell-based; conditions: Escherichia coli, E. coli DH10B ADC-7, MB076 fixed at 10 mg/L in combinations, FDC in iron-depleted broth
Procedure: as §1, §2

[3] = system: ADC-219 in pBCSK(−) E. coli DH10B; test: Broth microdilution AST, ADC-219; type: cell-based; conditions: Escherichia coli, E. coli DH10B ADC-219, MB076 fixed at 10 mg/L in combinations, FDC in iron-depleted broth
Procedure: as §1, §2

[4] = system: ADC-30 in pBCSK(−) E. coli DH10B; test: Broth microdilution AST, ADC-30; type: cell-based; conditions: Escherichia coli, E. coli DH10B ADC-30, MB076 fixed at 10 mg/L in combinations, FDC in iron-depleted broth
Procedure: as §1, §2

[5] = system: ADC-33 in pBCSK(−) E. coli DH10B; test: Broth microdilution AST, ADC-33; type: cell-based; conditions: Escherichia coli, E. coli DH10B ADC-33, MB076 fixed at 10 mg/L in combinations, FDC in iron-depleted broth
Procedure: as §1, §2

ADC-33 = ADC-33 (Acinetobacter baumannii, UniProt A7Y407)
Procedure: (§3) Steady-state kinetic parameters were determined by combining pure enzyme with antibiotic substrates in 50 mM NaH2PO4, pH 7.4 at room temperature. Changes in absorbance were measured on a Cary 60 UV–Vis spectrophotometer (Agilent Technologies) and converted to velocity using the change in extinction coefficient specific to nitrocefin (ε482 = 17,400 M^–1·cm^–1), cephalothin (ε262 = 7660 M^–1·cm^–1), ceftazidime (ε260 = 8660 M^–1·cm^–1), cefotaxime (ε260 = 7500 M^–1·cm^–1), cefepime (ε260 = 750 M^–1·cm^–1), cefiderocol (ε259 = 9430 M^–1·cm^–1), and ceftolozane (ε254 = 6810 M^–1·cm^–1). Initial velocities were fit to the Michaelis–Menten equation yielding kcat and KM values. For ADC/substrate combinations in which the KM was too large to accurately determine both kcat and KM values, the initial velocities at kcat/KM values were calculated from linear fits of vo in low [S] ranges (<0.08 × KM).

[6] = system: CO/N=C(\C(=O)N[C@@H]1C(=O)N2C(C(=O)[O-])=C(C[N+]3(C)CCCC3)CS[C@H]12)c1csc(N)n1; test: purified protein, by the assay type; conditions: other: ADC-7, substrate, 50 mM NaH2PO4 pH 7.4, room temperature
[7] = system: CC(=O)OCC1=C(C(=O)O)N2C(=O)[C@@H](NC(=O)Cc3cccs3)[C@H]2SC1; test: purified protein, by the assay type; conditions: other: ADC-7, substrate, 50 mM NaH2PO4 pH 7.4, room temperature
[8] = system: O=C(Cc1cccs1)N[C@@H]1C(=O)N2C(C(=O)O)=C(/C=C/c3ccc([N+](=O)[O-])cc3[N+](=O)[O-])CS[C@H]12; test: purified protein, by the assay type; conditions: other: ADC-7, substrate, 50 mM NaH2PO4 pH 7.4, room temperature
[9] = system: CC(C)(O/N=C(\C(=O)N[C@@H]1C(=O)N2C(C(=O)[O-])=C(C[N+]3(CCNC(=O)c4ccc(O)c(O)c4Cl)CCCC3)CS[C@H]12)c1csc(N)n1)C(=O)O; test: purified protein, by the assay type; conditions: other: ADC-7, substrate, 50 mM NaH2PO4 pH 7.4, room temperature
[10] = system: CC(C)(O/N=C(\C(=O)N[C@@H]1C(=O)N2C(C(=O)[O-])=C(C[n+]3ccccc3)CS[C@H]12)c1csc(N)n1)C(=O)O; test: purified protein, by the assay type; conditions: other: ADC-7, substrate, 50 mM NaH2PO4 pH 7.4, room temperature
[11] = system: Cn1c(N)c(NC(=O)NCCN)c[n+]1CC1=C(C(=O)O)N2C(=O)[C@@H](NC(=O)/C(=N\OC(C)(C)C(=O)[O-])c3nsc(N)n3)[C@H]2SC1; test: purified protein, by the assay type; conditions: other: ADC-7, substrate, 50 mM NaH2PO4 pH 7.4, room temperature
ADC-212 = ADC-212 (Acinetobacter baumannii, UniProt A8QIF8, A224D/INS243L/P244A); type: biochemical; conditions: substrate
Procedure: as §3

ADC-219 = ADC-219 (Acinetobacter baumannii, UniProt A7Y407, G248D); type: biochemical; conditions: substrate
Procedure: as §3

ADC-7 = ADC-7 (Acinetobacter baumannii, UniProt Q6DRA1)
Procedure: as §3

ADC-30 = ADC-30 (Acinetobacter baumannii, UniProt A7XM81)
Procedure: as §3

ADC-162 = ADC-162 (Acinetobacter baumannii, UniProt A0A2H4PPJ8); conditions: substrate
Procedure: as §3

`CO/N=C(\C(=O)N[C@@H]1C(=O)N2C(C(=O)[O-])=C(C[N+]3(C)CCCC3)CS[C@H]12)c1csc(N)n1` [cefepime] gave an MIC [1] of 0.5 µg/mL, an MIC [2] of 0.25 µg/mL and an MIC [3] of 0.12 µg/mL. It also gave an MIC [4] of 0.25 µg/mL and an MIC [5] of 0.5 µg/mL.
With `Cn1c(N)c(NC(=O)NCCN)c[n+]1CC1=C(C(=O)O)N2C(=O)[C@@H](NC(=O)/C(=N\OC(C)(C)C(=O)[O-])c3nsc(N)n3)[C@H]2SC1` [ceftolozane] the MIC [1] was 256 µg/mL, the MIC [2] was 8 µg/mL and the MIC [3] was 128 µg/mL. For the same compound, the MIC [4] was 8 µg/mL, the MIC [5] was 256 µg/mL and the kcat (ADC-33; ADC-33, substrate) was 4.23 s^–1.
With ADC-7 (Acinetobacter baumannii) the kcat/Km [6] was 6400 M⁻¹ s⁻¹, the Km [7] was 204.2 ± 11.2 µM and the kcat [7] was 659 ± 16.6 s⁻¹. The kcat/Km [7] was 3.22e+06 ± 260000 M⁻¹ s⁻¹, the Km [8] was 57.5 ± 4.6 µM and the kcat [8] was 720 ± 18.6 s⁻¹. For the same compound, the kcat/Km [8] was 1.25e+07 ± 1.33e+06 M⁻¹ s⁻¹, the kcat/Km [9] was < 1000 M⁻¹ s⁻¹ and the kcat/Km [10] was 2000 M⁻¹ s⁻¹. For the same compound, the kcat/Km [11] was < 1000 M⁻¹ s⁻¹.
`CO/N=C(\C(=O)N[C@@H]1C(=O)N2C(C(=O)O)=C(COC(C)=O)CS[C@H]12)c1csc(N)n1` [cefotaxime] was tested, and the MIC [1] was 128 µg/mL, the kcat (ADC-212) was 12.0 s^–1 and the kcat (ADC-219) was 44.2 s^–1. For the same compound, the MIC [2] was 64 µg/mL, the MIC [3] was 16 µg/mL and the MIC [4] was 64 µg/mL. For the same compound, the MIC [5] was 128 µg/mL, the kcat (ADC-7) was 0.048 s^–1 and the Km (ADC-7; ADC-7, substrate, 50 mM NaH2PO4 pH 7.4, room temperature) was 1.23 ± 0.17 µM. It also gave a kcat (ADC-33) of 0.46 s^–1, a Km (ADC-33; ADC-33, substrate, 50 mM NaH2PO4 pH 7.4, room temperature) of 7.11 ± 1.05 µM and a kcat (ADC-30) of 0.12 s^–1. For the same compound, the Km (ADC-30; ADC-30, substrate, 50 mM NaH2PO4 pH 7.4, room temperature) was 4.35 ± 1.81 µM, the kcat (ADC-162) was 25.4 s^–1 and the Km (ADC-162; 50 mM NaH2PO4 pH 7.4, room temperature) was 115 µM.
